Measured values: the supplement of paper PMC10307832

Columns and labels:
Test in all cases: relative viability (nuclei count vs DMSO), 5 days (fraction); higher = more cells survive
AZD5582 + Bortezomib = compound: C[C@@H](C(=O)N[C@@H](C1CCCCC1)C(=O)N2CCC[C@H]2C(=O)N[C@@H]3[C@@H](CC4=CC=CC=C34)OCC#CC#CCO[C@@H]5CC6=CC=CC=C6[C@@H]5NC(=O)[C@@H]7CCCN7C(=O)[C@H](C8CCCCC8)NC(=O)[C@H](C)NC)NC [AZD5582] + CC(C)C[C@H](NC(=O)[C@H](Cc1ccccc1)NC(=O)c1cnccn1)B(O)O [Bortezomib] (partner 0.002 µM)
Method in brief: (§1)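 After 5 days of treatment, lung cancer cells in 1536-well plates were fixed and stained in a single step (final 0.05% Triton X-100, 1% formaldehyde, 1 ug/ml Hoechst) and their nuclei counted on 4× images. Treatment had been applied by pin tool the day after seeding as one drug alone or as a fixed anchor-drug dose with five library-drug doses (not always all listed) in √10 steps. Relative viability is the nuclei count of treated wells divided by that of vehicle wells, and values are medians of duplicate plates.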

AZD5582 + Dasatinib = compound: C[C@@H](C(=O)N[C@@H](C1CCCCC1)C(=O)N2CCC[C@H]2C(=O)N[C@@H]3[C@@H](CC4=CC=CC=C34)OCC#CC#CCO[C@@H]5CC6=CC=CC=C6[C@@H]5NC(=O)[C@@H]7CCCN7C(=O)[C@H](C8CCCCC8)NC(=O)[C@H](C)NC)NC [AZD5582] + Cc1nc(Nc2ncc(C(=O)Nc3c(C)cccc3Cl)s2)cc(N2CCN(CCO)CC2)n1 [Dasatinib] (partner 0.075 µM)
Method in brief: as §1

[1] = compound: Cn1nnc2c(C(N)=O)ncn2c1=O [Temozolomide] + CC(=O)Nc1cccc(-n2c(=O)n(C3CC3)c(=O)c3c(Nc4ccc(I)cc4F)n(C)c(=O)c(C)c32)c1 [Trametinib] (partner 0.02 µM)
Method in brief: as §1

Temozolomide + Foretinib = compound: Cn1nnc2c(C(N)=O)ncn2c1=O [Temozolomide] + COc1cc2c(Oc3ccc(NC(=O)C4(C(=O)Nc5ccc(F)cc5)CC4)cc3F)ccnc2cc1OCCCN1CCOCC1 [Foretinib] (partner 0.25 µM)
Method in brief: as §1

| Cell Line | relative viability (AZD5582 + Bortezomib; first compound 0.001581 µM) | relative viability (AZD5582 + Bortezomib; first compound 0.005 µM) | relative viability (AZD5582 + Bortezomib; first compound 0.01581 µM) | relative viability (AZD5582 + Bortezomib; first compound 0.05 µM) | relative viability (AZD5582 + Dasatinib; first compound 0.001581 µM) | relative viability (AZD5582 + Dasatinib; first compound 0.005 µM) | relative viability (AZD5582 + Dasatinib; first compound 0.01581 µM) | relative viability (AZD5582 + Dasatinib; first compound 0.05 µM) | relative viability ([1]; first compound 0.2 µM) | relative viability ([1]; first compound 0.6325 µM) | relative viability ([1]; first compound 2 µM) | relative viability ([1]; first compound 6.325 µM) | relative viability ([1]; first compound 20 µM) | relative viability (Temozolomide + Foretinib; first compound 0.2 µM) | relative viability (Temozolomide + Foretinib; first compound 0.6325 µM) | relative viability (Temozolomide + Foretinib; first compound 2 µM) | relative viability (Temozolomide + Foretinib; first compound 6.325 µM) | relative viability (Temozolomide + Foretinib; first compound 20 µM) |
| --- | --- | --- | --- | --- | --- | --- | --- | --- | --- | --- | --- | --- | --- | --- | --- | --- | --- | --- |
| NCI-H1915 | 0.938 | 0.991 | 0.92 | 0.855 | 0.324 | 0.339 | 0.267 | 0.328 | 0.29 | 0.288 | 0.32 | 0.24 | 0.201 | 1.11 | 1.04 | 1 | 0.733 | 0.429 |
| HCC-366 | 0.982 | 1.1 | 1.01 | 1.19 | 0.614 | 0.658 | – | 0.647 | 0.395 | 0.31 | 0.427 | 0.425 | 0.329 | 0.941 | 0.94 | 0.947 | 0.932 | 0.528 |
| COR-L 105 | 0.768 | 0.877 | 0.69 | 0.827 | 0.374 | 0.455 | 0.278 | 0.258 | 0.425 | 0.42 | 0.395 | 0.431 | 0.402 | 1.17 | 1.29 | 1.18 | 0.51 | 1.11 |
| LCLC-97TM1 | 0.542 | 0.531 | 0.455 | 0.298 | 0.748 | 0.91 | 0.768 | 0.825 | 0.222 | 0.161 | 0.234 | 0.199 | 0.173 | 0.919 | 0.906 | 0.86 | 0.979 | 0.934 |
| PC-3 [JPC-3] | 0.8 | 0.788 | 0.793 | 0.38 | 0.861 | 0.794 | 0.97 | 0.193 | 0.547 | 0.769 | 0.821 | 0.724 | 0.433 | 1.11 | 1.03 | 0.998 | 1.03 | 0.526 |
| NCI-H1975 | 0.327 | 0.458 | 0.373 | 0.414 | 0.322 | 0.447 | 0.428 | 0.408 | 0.339 | 0.31 | 0.371 | 0.373 | 0.413 | 0.997 | 0.936 | 1.09 | 0.917 | 0.931 |
| NCI-H647 | 0.878 | 0.907 | 0.997 | 0.871 | 0.175 | 0.187 | 0.119 | 0.207 | 0.528 | 0.537 | 0.56 | 0.353 | 0.227 | 1.16 | 1.3 | 1.13 | 0.702 | 0.302 |
| NCI-H838 | 0.809 | 1.21 | 0.382 | 0.486 | 0.293 | 0.344 | – | 0.191 | 0.498 | 0.559 | 0.586 | 0.482 | 0.585 | 1.01 | 0.939 | 1.02 | 0.994 | 1.09 |
